Measured values: patent US5089504A, “Substituted 4-aminoquinoline derivatives as gastric acid secretion inhibitors” (SmithKline Beckman Intercredit B.V., priority 1988, dated 1992)
Counter-ions that a name gives are not always drawn.

Legend:
[1] = target: T1, gastrointestinal H^+ K^+ ATPase (Sus scrofa, UniProt P19156); assay: K+-stimulated ATPase activity in lyophilized gastric vesicles (H/K-ATPase); assay type: biochemical; conditions: lyophilized pig gastric vesicles, 37° C.; for IC50: K+-stimulated ATPase activity, pH 7.0, 30 minutes
T1 construct: Lyophilized gastric vesicles were prepared from pig fundic mucosa; from tissue; host or cells: pig fundic mucosa (lyophilized gastric vesicles)
T1 sequence (P19156 2-1034 limits assumed): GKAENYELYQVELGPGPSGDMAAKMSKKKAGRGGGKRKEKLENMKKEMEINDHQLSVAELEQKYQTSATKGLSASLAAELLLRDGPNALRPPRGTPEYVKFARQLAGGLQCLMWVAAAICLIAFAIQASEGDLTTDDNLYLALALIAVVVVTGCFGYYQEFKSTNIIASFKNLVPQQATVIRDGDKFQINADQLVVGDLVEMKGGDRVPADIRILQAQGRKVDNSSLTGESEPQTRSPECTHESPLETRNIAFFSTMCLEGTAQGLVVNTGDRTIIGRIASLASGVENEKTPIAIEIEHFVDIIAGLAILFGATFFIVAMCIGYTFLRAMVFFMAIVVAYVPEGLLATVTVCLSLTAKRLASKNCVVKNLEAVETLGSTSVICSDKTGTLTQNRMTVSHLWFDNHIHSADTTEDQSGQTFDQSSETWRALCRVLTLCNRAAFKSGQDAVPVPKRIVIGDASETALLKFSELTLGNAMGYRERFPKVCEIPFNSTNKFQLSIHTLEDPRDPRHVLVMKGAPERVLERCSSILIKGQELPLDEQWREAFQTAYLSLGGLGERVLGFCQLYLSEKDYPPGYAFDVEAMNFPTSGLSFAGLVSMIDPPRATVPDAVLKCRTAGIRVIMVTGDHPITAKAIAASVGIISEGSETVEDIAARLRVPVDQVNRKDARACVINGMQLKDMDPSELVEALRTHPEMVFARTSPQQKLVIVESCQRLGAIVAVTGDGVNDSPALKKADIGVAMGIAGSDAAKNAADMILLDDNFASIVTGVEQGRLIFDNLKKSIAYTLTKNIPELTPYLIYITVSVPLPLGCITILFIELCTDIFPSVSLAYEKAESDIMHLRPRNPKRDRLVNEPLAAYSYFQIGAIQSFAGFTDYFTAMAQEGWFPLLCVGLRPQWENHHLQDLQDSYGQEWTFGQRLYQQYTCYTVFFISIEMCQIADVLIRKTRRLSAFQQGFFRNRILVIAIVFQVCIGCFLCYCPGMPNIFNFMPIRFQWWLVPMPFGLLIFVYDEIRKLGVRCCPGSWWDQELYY
T1 sequence (P18434 whole entry partner): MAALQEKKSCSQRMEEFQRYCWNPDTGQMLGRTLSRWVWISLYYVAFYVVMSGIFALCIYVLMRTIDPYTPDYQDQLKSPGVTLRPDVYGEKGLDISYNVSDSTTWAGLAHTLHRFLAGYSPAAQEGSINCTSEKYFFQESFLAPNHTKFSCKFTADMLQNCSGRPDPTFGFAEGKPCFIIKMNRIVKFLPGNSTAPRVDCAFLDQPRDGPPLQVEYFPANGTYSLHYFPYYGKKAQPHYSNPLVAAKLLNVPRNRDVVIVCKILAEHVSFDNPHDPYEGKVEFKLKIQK
Protocol: The effects of a single high concentration (100 μM) of a compound of structure (I) on K-stimulated ATPase activity in lyophilized gastric vesicles was determined. Preferred compounds of structure (I) were also tested over a range of concentrations to determine IC50 values. Lyophilized gastric vesicles were prepared from pig fundic mucosa after the method of Keeling et. al. (Biochem. Pharmacol., 34, 2967, 1985). K^+ -stimulated ATPase activity was determined at 37° C. in the presence of the following : 10 mM Pipes/Tris buffer pH 7.0, 2 mM MgSO4, 1 mM KCl, 2 mM Na2 ATP and 3-6 μg protein/ml lyophilized gastric vesicles. After incubation for 30 minutes, the inorganic phosphate hydrolyzed from ATP was determined by the method of Yoda and Hokin (Biochem. Biophys. Res. Commun. 40, 880, 1970). Compounds of structure (I) were dissolved in dimethylsulphoxide which up to the highest concentration used had no effect on K^+ -stimulated ATPase activity. The effect of the highest concentration of each compound of structure (I) on the recovery of a standard amount of inorganic phosphate was also determined.

[2] = tested on: pentagastrin stimulated gastric acid secretion; assay: Rat lumen perfused stomach (pentagastrin stimulated gastric acid secretion); assay type: in vivo; conditions: iv, 10 μmole/kg
Text: B. Rat Lumen Perfused Stomach ([…] stimulated […] secretion) Using a modification of the procedure described by Ghosh & Schild (Br. J. Pharmacology, 13, 54, 1958), the compounds of the following examples were found on i.v. administration at a concentration of 10 μmole/kg to cause an inhibition of pentagastrin stimulated gastric acid secretion as follows: […]

Row | SMILES | IC50 [1] [nM] | % inhibition of K+-stimulated ATPase activity (printed in IC50 column as % @ 100) ([1]; @ 100 (μM), pH 7.0) [%] | inhibition in vivo at 10 µmol/kg [2] [%]
1 | CCCC(=O)c1cnc2c(OCCOC)cccc2c1Nc1ccccc1C [Example 2, 3-butyryl-4-(2-methylphenylamino)-8-(2-methoxyethoxy)quinoline] | 2500 | – | 67
2 | CCCC(=O)c1cnc2ccc(CO)cc2c1Nc1ccccc1C [Example 5, 3-butyryl-4-(2-methylphenylamino)-6-hydroxymethylquinoline] | 4400 | – | 46
3 | CCCC(=O)c1cnc2cc(CO)ccc2c1Nc1ccccc1C [Example 6, 3-butyryl-4-(2-methylphenylamino)-7-hydroxymethylquinoline] | – | 44 | –
4 | CCCC(=O)c1cnc2c(OCCO)cccc2c1Nc1ccccc1C [Example 10, 3-butyryl-4-(2-methylphenylamino)-8-(2-hydroxyethoxy)quinoline] | 2400 | – | 68
5 | CCCC(=O)c1cnc2c(OCCOCCOCCO)cccc2c1Nc1ccccc1C [Example 12, 3-butyryl-4-(2-methylphenylamino)-8-(2-(2-(2-hydroxyethoxy)ethoxy)ethoxy)quinoline] | 2400 | – | 57
6 | CCCC(=O)c1cnc2c(OCCOCCO)cccc2c1Nc1ccc(F)cc1C [Example 13, 3-butyryl-4-(4-fluoro-2-methylphenylamino)-8-(2-(2-hydroxyethoxy)ethoxy)quinoline] | 4000 | – | 49
7 | CCCC(=O)c1cnc2c(OCCO)cccc2c1Nc1ccc(F)cc1C [Example 14, 3-butyryl-4-(4-fluoro-2-methylphenylamino)-8-(2-hydroxyethoxy)quinoline] | 2700 | – | 79

More lines, main results first:

Row | IC50 [1] [nM] | % inhibition of K+-stimulated ATPase activity (printed in IC50 column as % @ 100) ([1]; @ 100 (μM), pH 7.0) [%] | SMILES | inhibition in vivo at 10 µmol/kg [2] [%]
8 | 840 | – | CCCC(=O)c1cnc2c(CO)cccc2c1Nc1ccccc1C [Example 1, 3-butyryl-4-(2-methylphenylamino)-8-(hydroxymethyl)quinoline] | 61
9 | 180 | – | CCCC(=O)c1cnc2c(CO)cccc2c1Nc1ccc(O)cc1C [Example 3, 3-butyryl-4-(4-hydroxy-2-methylphenylamino)-8-(hydroxymethyl)quinoline hydrochloride] | 88
10 | 360 | – | CCCC(=O)c1cnc2c(C(C)O)cccc2c1Nc1ccccc1C (stereo not shown) [Example 4, 3-butyryl-4-(2-methylphenylamino)-8-(1-hydroxyethyl)quinoline] | 63
11 | 820 | – | Cc1ccccc1Nc1c(C(=O)C(C)C)cnc2c(CO)cccc12 [Example 7, 3-isobutyryl-4-(2-methylphenylamino)-8-(hydroxymethyl)quinoline] | 74
12 | 2100 | – | Cc1cc(F)ccc1Nc1c(C(=O)C(C)C)cnc2c(CO)cccc12 [Example 8, 3-isobutyryl-4-(4-fluoro-2-methylphenylamino)-8-(hydroxymethyl)quinoline] | 76
13 | 2200 | – | CCCC(=O)c1cnc2c(CO)cccc2c1Nc1ccc(F)cc1C [Example 9, 3-butyryl-4-(4-fluoro-2-methylphenylamino)-8-(hydroxymethyl)quinoline] | 55
14 | 2100 | – | CCCC(=O)c1cnc2c(OCCOCCO)cccc2c1Nc1ccccc1C [Example 11, 3-butyryl-4-(2-methylphenylamino)-8-(2-(2-hydroxyethoxy)ethoxy)quinoline] | 77
15 | 60 | – | CCCC(=O)c1cnc2c(C(C)O)cccc2c1Nc1ccc(O)cc1C (stereo not shown) [Example 15, 3-butyryl-4-(4-hydroxy-2-methylphenylamino)-8-(1-hydroxyethyl)quinoline] | 70
16 | 40 | – | Cc1cc(O)ccc1Nc1c(C(=O)C(C)C)cnc2c(CO)cccc12 [Example 16, 3-isobutyryl-4-(4-hydroxy-2-methylphenylamino)-8-(hydroxymethyl)quinoline hydrochloride] | 91
